Two molecules from ChEMBL document CHEMBL1938259, “Novel substituted pyrimidines as HCV replication (replicase) inhibitors” (Bioorg Med Chem Lett, 2012) can be followed below.

Broadly, the AUC is concentration integrated over time. Higher therefore signals high exposure.

One data set deals with Canis familiaris. Briefly: AUC (0 to 24 hrs) in dog at 2 mg/kg, po. Type of data set: ADME, organism-based, Canis lupus familiaris, Plasma. The conditions noted are these: in vivo. Also on record: time < 24 hr, dose 2 mg/kg, route oral.
For a further data set, the system named is Rattus norvegicus. Briefly: AUC (0 to 24 hrs) in rat at 10 mg/kg, po and 2 mg/kg, iv. It counts as ADME, organism-based, Plasma. The conditions noted are these: in vivo.

`Nc1nc(Cl)c(C#Cc2ccsc2)c(N[C@@H]2C[C@H](CO)[C@@H](O)[C@H]2O)n1`: the values for the AUC in the data set on Canis familiaris and in the data set on Rattus norvegicus were 2.2 µM·h and 1.6 µM·h, respectively.
Take `Nc1nc(Cl)c(C#Cc2nccs2)c(N[C@@H]2C[C@H](CO)[C@@H](O)[C@H]2O)n1`: the AUC in the data set on Rattus norvegicus was 0.6 µM·h.
